From ChEMBL document CHEMBL3507680, “University of Dundee, Gates Library screen for HepG2 cell viability”

experiment: Human HepG2 cell viability assay in 384 well format; assay type: toxicity, cell-based; set-up: dose 125 nL, time 70.5 hour; concentration not given beside the values; conditions: HepG2 cells, read-out: Inhibition

SMILES | cytotoxicity at 70.5 h
Cc1noc2nc3c(c(C(=O)/N=c4\[nH]ncs4)c12)CCC3 | 25.6%
O=C([C@H]1C[C@H]2OCC[C@H]2N(Cc2ccc(F)cc2)C1)N1CCCCO1 | 20.6%
CN(C)C(=O)N1CC[C@@H](c2ccc3ccccc3c2)[C@H](O)C1 | 6.36%
O=C1CC(c2cccnc2)c2c(c(C(=O)O)cn2-c2ccccc2)N1 (centres undefined) | -1.92%
Fc1ccc(Cc2cccc(C3CCN(C4CCOCC4)CC3)n2)cc1 | 0.432%
COCCCn1ccc(NC(=O)NCc2cccc(N(C)C)c2)n1 | -5.16%
COCCNc1nc2c(c(NCCc3cccs3)n1)CCNCC2 | -2.67%
Cc1csc(CN2C[C@@H]3COC[C@]3(COCC(=O)N(C)C)C2)n1 | -3.08%
COCCOCC(=O)Nc1ccccc1F | -6.23%
c1cncc(COc2ccccc2CNC2CCc3ncnn3C2)c1 (centres undefined) | -5.98%
CN(C)CC1(O)CCCN(Cc2cnc(-c3ccco3)nc2)CC1 (centres undefined) | -8.26%
Cc1ccccc1-n1c(C)cc(=O)[nH]c1=O | 26.3%
Cc1nnc(NC(=O)CN2CCc3nn(C(C)C)c(=O)cc3C2)s1 | -6.14%
Cc1ccc(CC(=O)NCC(O)c2ccc(Cl)cc2Cl)cn1 (centres undefined) | 3.42%
O=C(O)c1c(-c2cncnc2)ncc2c1CCN(Cc1cccnc1)C2 | 2.19%
O=C(O)c1nnn(-c2cc(F)cc(F)c2)c1-c1ccncc1 | 8.43%
c1cncc(COCc2nnc3n2CCN(Cc2ccsc2)C3)c1 | -2.47%
Cc1noc(C(C)N2CCc3[nH]c4ccc(Cl)cc4c3C2)n1 (centres undefined) | -8.97%
CCOc1cc(C)ccc1NS(=O)(=O)c1cc(C)c(C(=O)O)s1 | -1.53%
CC(C)(C)c1ncc(C(=O)NCCNC(=O)c2ccco2)s1 | -6.05%
CC(C)Oc1ncnc2c1CCN(Cc1ccc(F)cc1)CC2 | -5.44%
CC(C)c1nn(C)c(Cl)c1CNCc1ccc2c(c1)OCO2 | -5.25%
O=C(c1ccco1)N(CC(F)(F)F)C1CCOCC1 | -7.66%

SMILES | cytotoxicity at 70.5 h
CN(C)c1ccc2c(c1)CN(C(=O)c1ccnnc1)C2c1cnco1 (centres undefined) | -13.8%
Cc1noc(C)c1CN1C(=O)[C@H]2CC[C@@H]1CN(Cc1cccc(O)c1)C2 | 5.47%
Cn1cc(CN2CCC(F)(F)C3(CCN(c4ncccn4)C3)C2)cn1 (centres undefined) | -12.2%
CC(C)NC(=O)N1CCOC2(CCNCC2)C1 | -2.57%
COCCC1(CO)CCCN(C(=O)c2cc(Cl)ccc2F)C1 (centres undefined) | -11%
Cc1cnc(C(=O)N2CCCC(n3cccn3)C2)cn1 (centres undefined) | -1.48%
COc1ncccc1CNC(=O)c1ccc(C)[nH]c1=O | 12.6%
O=C(CCN1CCCO1)NC1CCCN(CC2CCCCC2)C1 (centres undefined) | -2.41%
Nc1nnc(CCNc2ncnc3c2CCN(C(=O)C2CC2)C3)s1 | -4.19%
Cc1nnc([C@@H]2CCO[C@@H]3CCN(C(=O)Cc4ccsc4)C[C@@H]32)o1 | -5.87%
COCCN1C(=O)C2(CCC(C(=O)Nc3cccc(C)c3)CC2)N=C1C (centres undefined) | -9.96%
CC(C)(C)N1CC(C(=O)NCc2noc(Cc3ccccc3)n2)CC1=O (centres undefined) | 21.2%
COc1ccc(C(C(=O)O)N(C)Cc2ccon2)cc1Cl (centres undefined) | -4.56%
Cc1ccc(C(=O)N2CCc3ncccc3C2)cc1N1CCNC1=O | 0.999%
O=C(c1cccs1)N1CC[C@@H](N2CCOCC2)[C@@H]1Cc1ccccc1 | -15.7%
O=C(COc1cccc(Br)c1)N1CCOCC1c1ncon1 (centres undefined) | -3.27%
O=C(NCCCO)c1nc(-c2ccc3cc[nH]c3c2)no1 | -7.51%
CC[C@@]1(O)CCN(C(=O)c2ccoc2)C[C@H]1O | -7.14%
CC(C)Cc1nc(CS(C)(=O)=O)n(-c2ccccn2)n1 | -7.54%
CN(C)S(=O)(=O)NCC(Cc1cccc(F)c1)N1CCNC1=O (centres undefined) | -2.09%
CCNc1nnc(SC(C(=O)NCc2cccnc2)C(C)C)s1 (centres undefined) | -14.3%
CCn1cnnc1C1CCN(C(=O)c2cc(F)ccc2OC)CC1 | -10.6%
CCn1cc(CN2CCCn3nc(CNC(=O)N(C)C)cc3C2)cn1 | -7.73%

SMILES | cytotoxicity at 70.5 h
COc1ccc(C(C)Nc2ncc(C(N)=O)cc2Cl)cc1OC (centres undefined) | -10.8%
CCN(CC)C(=O)Cn1cc(C(=O)NCCc2nc(C)c(C)s2)nn1 | -2.44%
O=C(NC1CC1)c1nc2c(s1)CCCN2c1ccccc1 | -6.79%
Cc1nccn1-c1ccc(NC(=O)C2CCCN2Cc2ccoc2)cc1 (centres undefined) | -6.93%
c1ccc2c(c1)CCC21CN(CCc2ccncc2)CCO1 (centres undefined) | -4.57%
Clc1ccccc1-c1nc(CNCCn2cccn2)cs1 | -6.01%
Cc1cnn(C2CN(c3ccccc3S(=O)(=O)C(F)(F)F)C2)c1 | 1.3%
CN(C)CCN(C)C(=O)Cc1ccc2c(c1)OCCO2 | 0.0835%
CC(c1cccc(O)c1)N(C)S(=O)(=O)c1cccnc1 (centres undefined) | 4.03%
COc1ccnc(N2CCN(C(=O)c3csc(C)n3)CC2)n1 | -4.93%
COC(=O)C1CCN(C(=O)Cn2ccc(-c3ccsc3)n2)CC1 | -3.32%
Cc1ccc(CN2CCc3nnc(CN4CCCC4=O)n3CC2)s1 | -7.74%
COCc1cnc2n1CCN(Cc1cccnc1)C2C (centres undefined) | -17.6%
CCCOc1cc(C)ccc1NC(=O)N(C)Cc1cnn(C)c1 | -4.07%
Cc1cc(C2CCCN2C(=O)NCc2cccnc2N(C)C)on1 (centres undefined) | 23.2%
CC(C)(CN1CCC(Cc2ccc(C(=O)O)cc2)C1)N1CCOCC1 (centres undefined) | -12.2%
CCOCC1CC2(CCN(C(=O)c3ccccn3)CC2)CO1 (centres undefined) | -6.81%
O=C(c1cc2cccc(F)c2[nH]1)N1C[C@@H](O)[C@H](N2CCOCC2)C1 | -5.87%
CC(CC(=O)N1CCC(c2nnc3n2CCC3)CC1)n1cccc1 (centres undefined) | 10.7%
COC(=O)C1CCN(C(=O)c2cccc(NS(C)(=O)=O)c2C)CC1 | -7.56%
COC(=O)CNC(=O)c1sccc1N(C)S(=O)(=O)c1ccc(Cl)cc1 | 2.69%
O=C(CC1C=CCC1)Nc1ncn(CC(=O)N2CCCCCC2)n1 (centres undefined) | -13.4%
O=C1COC2(CCN(c3ncccn3)CC2)CN1 | -1.8%

SMILES | cytotoxicity at 70.5 h
CC(C(=O)N1CCCCC1)N1CCN(c2ncc(Cl)cn2)CC1 (centres undefined) | -0.389%
CCSc1cc(C(=O)NC2CCN(C(=O)c3ccncc3)CC2)ccn1 | -0.0904%
O=C(Nc1cccnc1)Nc1cccc(CN2CCC(O)CC2)c1 | 10.2%
CCN(CC)CCNC(=O)c1cnc(-c2ccccc2)nc1 | -7.78%
CC(C)Nc1ncnc2c1CCN(C(=O)NCc1cccc(F)c1)CC2 | -7.17%
CC(C)n1cc(CN2CCCN(C(=O)c3cc(Cl)c[nH]3)CC2)cn1 | 1.03%
CCc1n[nH]c(C2CN(Cc3nnc(C4CC4)n3C)CCO2)n1 (centres undefined) | 27.9%
CCOc1ccc(CN(CCOC)c2nc(C)nc3oc(C)nc23)cc1 | -12.6%
Cc1nc(N2CCCC2)ncc1-c1cc(O)nc(N2CCOCC2)n1 | -4.64%
Cn1nccc1C(=O)N1CCCC2(CCN(c3ccsc3)C2=O)C1 (centres undefined) | 10.3%
Cn1nc(C2CCCC2)c(-c2ccc3c(c2)OCO3)c1N | -8.03%
CN(C)CC1CN(c2ccc(C#N)cn2)CCO1 (centres undefined) | -10.1%
CCOc1ccccc1C(CC(=O)Nc1ccccn1)NC(C)=O (centres undefined) | -5.35%
CCOc1cccc(CNC(=O)NC2CC=CC2)c1OC(F)F | 0.101%
O=C(CN1CCOC(Cn2cncn2)C1)NCc1cccs1 (centres undefined) | 29.2%
COCc1nc(C(=O)N2CCCC2c2ccc(OC)cc2)cs1 (centres undefined) | -14.3%
Cc1noc(C)c1CN1CCC(NC(=O)OC(C)(C)C)CC1 | -0.745%
CNCc1ccc(OCc2ccc3c(c2)OCCO3)cc1 | -3.57%
CC(=O)N1C[C@@H](c2ccsc2)[C@@H]2CN(Cc3ccccc3Cl)CC[C@@H]21 | -5.99%
Cc1cc(CNCCNS(C)(=O)=O)sc1Br | 4.81%
Cc1cnc(NC(=O)c2ccc(-n3ncc(C#N)c3N)cc2)s1 | 8.89%
Cc1ccnc(C2CCN(C(=O)CCn3ncc4ccccc43)C2)n1 (centres undefined) | -8.45%
O=C(c1ccnnc1)N1C[C@H](OCC2CCOCC2)[C@H]2OCCC[C@H]21 | 0.563%

SMILES | cytotoxicity at 70.5 h
CCN1C(=O)CC(c2cccnc2)C12CCN(c1ncc(F)cn1)CC2 (centres undefined) | 1.09%
Cc1ncsc1CCC(=O)NC1CCN(c2ccc(Cl)nn2)CC1 | -13.9%
Cc1ccccc1C(=O)NC[C@@H]1CCN(C(=O)c2cccn2C)C[C@H]1O | -13%
COc1ccc(F)c(CN2CCCC(O)(CNCc3ncc[nH]3)C2=O)c1 (centres undefined) | -5.99%
CCOCCCNc1cc(C)nn2cnnc12 | 7.54%
Cc1ccc(-c2nc(CNc3ccc(C(N)=O)c(C)c3)cs2)o1 | -8.76%
Cc1noc(C)c1CN(C)C(=O)CN1CC(c2ccccc2)CC1=O (centres undefined) | -6.3%
COc1c(Br)c(C(=O)NC2CCCCC2)nn1C | -15%
COc1ccc(OCc2cc(C(=O)N3C[C@@H](C)O[C@@H](C)C3)n[nH]2)c(Cl)c1 | -8.42%
NC(=O)c1ccc(N2CCCCC2)c(NC(=O)c2cc(F)ccc2F)c1 | -4.2%
CC(C)C1COC2(CCN(Cc3ccco3)CC2)C1 (centres undefined) | -7.19%
NC(=O)CCNC(=O)C1(N2CCCCC2)Cc2ccccc2C1 | 9.16%
C[C@H]1C[C@@H]2CCN(Cc3ccco3)C[C@H]2O1 | -7.2%
CC(=O)N1CCCN(C(=O)NC(C)Cn2cccn2)CC1 (centres undefined) | -3.94%
CCCc1nc(C(=O)N2CCN(C(=O)OC)CC2)cs1 | -4.71%
COc1ccc(S(=O)(=O)NCc2cccnc2N(C)C)cc1 | -5%
N#Cc1cc(F)c(NCCc2ccc(F)cc2)c(F)c1 | -2.9%
Cc1nsc(N2CCN(CC(=O)NCc3ccc(F)cc3)CC2)n1 | -0.931%
O=S(=O)(Nc1cnn(C2CCOCC2)c1)c1ccc(Br)cc1 | -5.21%
COc1cc(CN2CCCC(Nc3cccc(F)c3)C2)cc(Cl)c1O (centres undefined) | 6.37%
COc1cccc(CN2CCCCC2CN2CCOCC2)c1F (centres undefined) | -2.15%
Cc1ccc(CN(c2cc(C)nc3nc(C(F)(F)F)nn23)C2CC2)cc1 | 0.825%
